In US10947271B2, “Antibacterial agents” (THE UNIVERSITY OF QUEENSLAND, priority 2014, dated 2021):

Tests used:
Format in all cases: cell-based
Details in all cases: 24 h incubation, visual reading
[1] = tested on: Staphylococcus aureus MRSA ATCC 43300; test: MIC assay, S. aureus MRSA ATCC 43300
Summary of the method: (§1)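 Twofold broth microdilution in Mueller Hinton broth; compounds tested from 8 μg/ml to 0.003 μg/ml. Mid-log cultures were inoculated at 5×10e5 CFU/mL and incubated 24 h at 37° C. MIC was the lowest concentration with no visible growth.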

[2] = tested on: Enterococcus faecium MDR Van A ATCC 51559; test: MIC assay, E. faecium MDR Van A ATCC 51559
Summary of the method: as §1

[3] = tested on: Streptococcus pneumoniae MDR ATCC 700677; test: MIC assay, S. pneumoniae MDR ATCC 700677
Summary of the method: as §1

Minimum Inhibitory Concentration (MIC) Staph. aureus ATCC43300 [1]	Minimum Inhibitory Concentration (MIC) E. faecium ATCC51559 [2]	Minimum Inhibitory Concentration (MIC) S. pneumoniae ATCC 700677 [3]	Structure (SMILES)
xxxx (xxxx = 0.01-<0.1)	xxx (xxx = 0.1-<1)	xxx (xxx = 0.1-<1)	CCCCCCCCCN1CCC(C(=O)N[C@@H](CCCCN)C(=O)N[C@@H](CCCCNC(=O)[C@H]2NC(=O)[C@H]3NC(=O)[C@H](NC(=O)[C@@H]4NC(=O)[C@H](CC(N)=O)NC(=O)[C@H](NC(=O)[C@@H](CC(C)C)NC)[C@H](O)c5ccc(c(Cl)c5)Oc5cc4cc(c5O[C@@H]4O[C@H](CO)[C@@H](O)[C@H](O)[C@H]4O[C@H]4C[C@](C)(N)[C@H](O)[C@H](C)O4)Oc4ccc(cc4Cl)[C@H]3O)c3ccc(O)c(c3)-c3c(O)cc(O)cc32)C(N)=O)CC1 [MCC_004825]
xxxxx (xxxxx = <0.01)	xxx (xxx = 0.1-<1)	xxxxx (xxxxx = <0.01)	CCCCCCCCCCC(=O)N[C@@H](CCCCN)C(=O)N[C@@H](CCCCN)C(=O)NCc1cccc(CNC(=O)[C@H]2NC(=O)[C@H]3NC(=O)[C@H](NC(=O)[C@@H]4NC(=O)[C@H](CC(N)=O)NC(=O)[C@H](NC(=O)[C@@H](CC(C)C)NC)[C@H](O)c5ccc(c(Cl)c5)Oc5cc4cc(c5O[C@@H]4O[C@H](CO)[C@@H](O)[C@H](O)[C@H]4O[C@H]4C[C@](C)(N)[C@H](O)[C@H](C)O4)Oc4ccc(cc4Cl)[C@H]3O)c3ccc(O)c(c3)-c3c(O)cc(O)cc32)c1 [MCC_005044]
xxxx (xxxx = 0.01-<0.1)	x (x = >4)	xxxx (xxxx = 0.01-<0.1)	CCCCCCCCCCC(=O)N[C@@H](CCCCN)C(=O)N[C@@H](CCCCNC(=O)[C@H]1NC(=O)[C@H]2NC(=O)[C@H](NC(=O)[C@@H]3NC(=O)[C@H](CC(N)=O)NC(=O)[C@H](NC(=O)[C@@H](CC(C)C)NC)[C@H](O)c4ccc(c(Cl)c4)Oc4cc3cc(c4O[C@@H]3O[C@H](CO)[C@@H](O)[C@H](O)[C@H]3O[C@H]3C[C@](C)(N)[C@H](O)[C@H](C)O3)Oc3ccc(cc3Cl)[C@H]2O)c2ccc(O)c(c2)-c2c(O)cc(O)cc21)C(N)=O [MCC_005062]
xxxxx (xxxxx = <0.01)	xx (xx = 1-4)	xxxxx (xxxxx = <0.01)	CCCCCCCCCCCC(=O)N[C@@H](CCCCN)C(=O)N[C@@H](CCCCNC(=O)[C@H]1NC(=O)[C@H]2NC(=O)[C@H](NC(=O)[C@@H]3NC(=O)[C@H](CC(N)=O)NC(=O)[C@H](NC(=O)[C@@H](CC(C)C)NC)[C@H](O)c4ccc(c(Cl)c4)Oc4cc3cc(c4O[C@@H]3O[C@H](CO)[C@@H](O)[C@H](O)[C@H]3O[C@H]3C[C@](C)(N)[C@H](O)[C@H](C)O3)Oc3ccc(cc3Cl)[C@H]2O)c2ccc(O)c(c2)-c2c(O)cc(O)cc21)C(N)=O [MCC_005063]
xxxxx (xxxxx = <0.01)	x (x = >4)	xxxx (xxxx = 0.01-<0.1)	CCCCCCCCCCC(=O)N[C@@H](CCCCN)C(=O)NCCNC(=O)[C@H]1NC(=O)[C@H]2NC(=O)[C@H](NC(=O)[C@@H]3NC(=O)[C@H](CC(N)=O)NC(=O)[C@H](NC(=O)[C@@H](CC(C)C)NC)[C@H](O)c4ccc(c(Cl)c4)Oc4cc3cc(c4O[C@@H]3O[C@H](CO)[C@@H](O)[C@H](O)[C@H]3O[C@H]3C[C@](C)(N)[C@H](O)[C@H](C)O3)Oc3ccc(cc3Cl)[C@H]2O)c2ccc(O)c(c2)-c2c(O)cc(O)cc21 [MCC_005163]
xxx (xxx = 0.1-<1)	x (x = >4)	xxx (xxx = 0.1-<1)	CCCCCCCC(=O)N[C@@H](CCCCN)C(=O)N[C@@H](CCCCN)C(=O)NCCNC(=O)[C@H]1NC(=O)[C@H]2NC(=O)[C@H](NC(=O)[C@@H]3NC(=O)[C@H](CC(N)=O)NC(=O)[C@H](NC(=O)[C@@H](CC(C)C)NC)[C@H](O)c4ccc(c(Cl)c4)Oc4cc3cc(c4O[C@@H]3O[C@H](CO)[C@@H](O)[C@H](O)[C@H]3O[C@H]3C[C@](C)(N)[C@H](O)[C@H](C)O3)Oc3ccc(cc3Cl)[C@H]2O)c2ccc(O)c(c2)-c2c(O)cc(O)cc21 [MCC_005164]
xxxxx (xxxxx = <0.01)	xx (xx = 1-4)	xxxx (xxxx = 0.01-<0.1)	CCCCCCCCCCC(=O)N[C@@H](CCCCN)C(=O)N[C@@H](CCCCN)C(=O)N[C@@H](CCCCN)C(=O)NCCNC(=O)[C@H]1NC(=O)[C@H]2NC(=O)[C@H](NC(=O)[C@@H]3NC(=O)[C@H](CC(N)=O)NC(=O)[C@H](NC(=O)[C@@H](CC(C)C)NC)[C@H](O)c4ccc(c(Cl)c4)Oc4cc3cc(c4O[C@@H]3O[C@H](CO)[C@@H](O)[C@H](O)[C@H]3O[C@H]3C[C@](C)(N)[C@H](O)[C@H](C)O3)Oc3ccc(cc3Cl)[C@H]2O)c2ccc(O)c(c2)-c2c(O)cc(O)cc21 [MCC_005182]
xxx (xxx = 0.1-<1)	x (x = >4)	xxx (xxx = 0.1-<1)	CCCCCCCC(=O)N[C@@H](CCCCN)C(=O)NCCNC(=O)[C@H]1NC(=O)[C@H]2NC(=O)[C@H](NC(=O)[C@@H]3NC(=O)[C@H](CC(N)=O)NC(=O)[C@H](NC(=O)[C@@H](CC(C)C)NC)[C@H](O)c4ccc(c(Cl)c4)Oc4cc3cc(c4O[C@@H]3O[C@H](CO)[C@@H](O)[C@H](O)[C@H]3O[C@H]3C[C@](C)(N)[C@H](O)[C@H](C)O3)Oc3ccc(cc3Cl)[C@H]2O)c2ccc(O)c(c2)-c2c(O)cc(O)cc21 [MCC_005183]
xxx (xxx = 0.1-<1)	xx (xx = 1-4)	xxx (xxx = 0.1-<1)	CCCCCCCC(=O)N[C@@H](CCCCN)C(=O)N[C@@H](CCCCN)C(=O)NCCCNC(=O)[C@H]1NC(=O)[C@H]2NC(=O)[C@H](NC(=O)[C@@H]3NC(=O)[C@H](CC(N)=O)NC(=O)[C@H](NC(=O)[C@@H](CC(C)C)NC)[C@H](O)c4ccc(c(Cl)c4)Oc4cc3cc(c4O[C@@H]3O[C@H](CO)[C@@H](O)[C@H](O)[C@H]3O[C@H]3C[C@](C)(N)[C@H](O)[C@H](C)O3)Oc3ccc(cc3Cl)[C@H]2O)c2ccc(O)c(c2)-c2c(O)cc(O)cc21 [MCC_005196]
xxxx (xxxx = 0.01-<0.1)	xx (xx = 1-4)	xxxx (xxxx = 0.01-<0.1)	CCCCCCCCCCC(=O)N[C@@H](CCCCN)C(=O)NCCCNC(=O)[C@H]1NC(=O)[C@H]2NC(=O)[C@H](NC(=O)[C@@H]3NC(=O)[C@H](CC(N)=O)NC(=O)[C@H](NC(=O)[C@@H](CC(C)C)NC)[C@H](O)c4ccc(c(Cl)c4)Oc4cc3cc(c4O[C@@H]3O[C@H](CO)[C@@H](O)[C@H](O)[C@H]3O[C@H]3C[C@](C)(N)[C@H](O)[C@H](C)O3)Oc3ccc(cc3Cl)[C@H]2O)c2ccc(O)c(c2)-c2c(O)cc(O)cc21 [MCC_005198]
xxxx (xxxx = 0.01-<0.1)	xx (xx = 1-4)	xxxx (xxxx = 0.01-<0.1)	CCCCCCCCC(=O)N[C@@H](CCCCN)C(=O)N[C@@H](CCCCN)C(=O)NCCCNC(=O)[C@H]1NC(=O)[C@H]2NC(=O)[C@H](NC(=O)[C@@H]3NC(=O)[C@H](CC(N)=O)NC(=O)[C@H](NC(=O)[C@@H](CC(C)C)NC)[C@H](O)c4ccc(c(Cl)c4)Oc4cc3cc(c4O[C@@H]3O[C@H](CO)[C@@H](O)[C@H](O)[C@H]3O[C@H]3C[C@](C)(N)[C@H](O)[C@H](C)O3)Oc3ccc(cc3Cl)[C@H]2O)c2ccc(O)c(c2)-c2c(O)cc(O)cc21 [MCC_005199]
xx (xx = 1-4)	x (x = >4)	xx (xx = 1-4)	CCCCCCCC(=O)N[C@@H](CCCCN)C(=O)N[C@@H](CCCCNC(=O)[C@H]1NC(=O)[C@H]2NC(=O)[C@H](NC(=O)[C@@H]3NC(=O)[C@H](CC(N)=O)NC(=O)[C@H](NC(=O)[C@@H](CC(C)C)NC)[C@H](O)c4ccc(c(Cl)c4)Oc4cc3cc(c4O[C@@H]3O[C@H](CO)[C@@H](O)[C@H](O)[C@H]3O[C@H]3C[C@](C)(N)[C@H](O)[C@H](C)O3)Oc3ccc(cc3Cl)[C@H]2O)c2ccc(O)c(c2)-c2c(O)cc(O)cc21)C(=O)O [MCC_005222]
xxxx (xxxx = 0.01-<0.1)	xx (xx = 1-4)	xxxx (xxxx = 0.01-<0.1)	CCCCCCCCCCCC(=O)N[C@@H](CCCCN)C(=O)N[C@@H](CCCCNC(=O)[C@H]1NC(=O)[C@H]2NC(=O)[C@H](NC(=O)[C@@H]3NC(=O)[C@H](CC(N)=O)NC(=O)[C@H](NC(=O)[C@@H](CC(C)C)NC)[C@H](O)c4ccc(c(Cl)c4)Oc4cc3cc(c4O[C@@H]3O[C@H](CO)[C@@H](O)[C@H](O)[C@H]3O[C@H]3C[C@](C)(N)[C@H](O)[C@H](C)O3)Oc3ccc(cc3Cl)[C@H]2O)c2ccc(O)c(c2)-c2c(O)cc(O)cc21)C(=O)O [MCC_005224]
xx (xx = 1-4)	x (x = >4)	xx (xx = 1-4)	CCCCCCCC(=O)N[C@@H](CCCCN)C(=O)N[C@@H](CCCCN)C(=O)N[C@@H](CCCCNC(=O)[C@H]1NC(=O)[C@H]2NC(=O)[C@H](NC(=O)[C@@H]3NC(=O)[C@H](CC(N)=O)NC(=O)[C@H](NC(=O)[C@@H](CC(C)C)NC)[C@H](O)c4ccc(c(Cl)c4)Oc4cc3cc(c4O[C@@H]3O[C@H](CO)[C@@H](O)[C@H](O)[C@H]3O[C@H]3C[C@](C)(N)[C@H](O)[C@H](C)O3)Oc3ccc(cc3Cl)[C@H]2O)c2ccc(O)c(c2)-c2c(O)cc(O)cc21)C(=O)O [MCC_005225]
